For this assay, the target named is PI-3 kinase γ (Homo sapiens, UniProt P48736). The assay can be described thus: PI3Kγ inhibitory activity, PI3-kinase HTRF assay (Millipore). In kind it is biochemical. The settings on record: 0.5 h; compound 50 μM; read-out: Inhibition ratio % (50 μM). Here is the method: (Method) The PI3Kγ inhibitory activity of a compound was evaluated using PI3-kinase HTRF™ assay (Millipore) according to the following procedure.
To each well of a testing plate was added 5 μL of a compound solution comprising 10% DMSO (200 μM as the concentration of the compound), 5 μL of 40 μM phosphatidylinositol (4,5)-bisphosphate/20 mM MgCl2/10 mM DTT, and 5 μL of 80 μg/mL PI-3 kinase γ/10 mM MgCl2/5 mM DTT, and then stood for 10 minutes.
Then, 5 μL of 40 μM ATP/10 mM MgCl2/5 mM DTT was added thereto. After reacting for 30 minutes at room temperature, 5 μL of a solution comprising EDTA and biotinylated phosphatidylinositol (3,4,5)-triphosphate was added to quench the reaction.
5 μL of a detection reagent comprising a europium-labeled anti-GST antibody, the GST-tagged PH domain, and allophycocyanin-labeled streptavidin was added thereto. After 18 hours, HTRF (excitation wavelength: 330 nm, measuring wavelengths: 620 nm and 665 nm) was measured.
A value of dividing an amount of fluorescence obtained at the measuring wavelength 665 nm by an amount of fluorescence obtained at 620 nm was defined as an HTRF ratio. The HTRF ratio in the absence of a compound was defined as 100% activity, and the HTRF ratio in the absence of PI-3 kinase γ was defined as 0% activity to calculate an inhibition ratio.

SMILES strings stand for the structures.

Chain of PI-3 kinase γ (P48736 whole entry): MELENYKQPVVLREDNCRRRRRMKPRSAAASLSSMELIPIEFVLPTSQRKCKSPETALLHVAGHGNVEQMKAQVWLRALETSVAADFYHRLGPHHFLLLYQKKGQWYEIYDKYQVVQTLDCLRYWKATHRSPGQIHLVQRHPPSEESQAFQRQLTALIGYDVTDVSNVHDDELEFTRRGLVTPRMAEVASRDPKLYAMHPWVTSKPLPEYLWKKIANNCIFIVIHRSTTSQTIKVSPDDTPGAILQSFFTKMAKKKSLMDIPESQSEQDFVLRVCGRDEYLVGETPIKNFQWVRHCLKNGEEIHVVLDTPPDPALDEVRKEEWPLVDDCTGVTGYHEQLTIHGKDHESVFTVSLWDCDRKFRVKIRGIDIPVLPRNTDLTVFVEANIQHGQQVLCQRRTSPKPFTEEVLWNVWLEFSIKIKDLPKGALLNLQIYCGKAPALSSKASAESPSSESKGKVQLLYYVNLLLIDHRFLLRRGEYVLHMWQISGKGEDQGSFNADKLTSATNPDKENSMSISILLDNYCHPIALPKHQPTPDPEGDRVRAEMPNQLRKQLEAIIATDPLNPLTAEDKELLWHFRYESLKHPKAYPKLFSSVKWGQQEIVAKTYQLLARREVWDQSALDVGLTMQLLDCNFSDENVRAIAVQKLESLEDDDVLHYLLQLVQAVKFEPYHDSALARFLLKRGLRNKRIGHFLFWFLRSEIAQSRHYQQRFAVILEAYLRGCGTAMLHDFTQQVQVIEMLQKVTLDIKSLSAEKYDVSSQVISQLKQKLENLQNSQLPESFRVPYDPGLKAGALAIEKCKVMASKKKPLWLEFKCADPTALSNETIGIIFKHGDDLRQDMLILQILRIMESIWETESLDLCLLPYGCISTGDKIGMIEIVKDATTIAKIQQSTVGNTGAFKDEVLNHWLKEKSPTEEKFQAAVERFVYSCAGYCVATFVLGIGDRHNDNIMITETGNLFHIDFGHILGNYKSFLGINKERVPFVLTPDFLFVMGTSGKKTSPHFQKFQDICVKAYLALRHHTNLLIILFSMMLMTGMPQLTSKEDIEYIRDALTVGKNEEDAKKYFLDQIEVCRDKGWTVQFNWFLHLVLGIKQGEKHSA

Consider `CNC(=O)Nc1cn2nc(Cl)ccc2n1` [Compound I-1], for which the inhibition at 50 µM worked out at 72%.
The result for `CNC(=O)Nc1cn2nc(NC(=O)C3CCCC3)ccc2n1` [Compound I-4] reads 57%; that for `CNC(=O)Nc1cn2nc(NC(=O)Nc3ccccc3)ccc2n1` [Compound I-5], 60%.
The result for `CNC(=O)Nc1cn2nc(N3CCCC3=O)ccc2n1` [Compound I-6] reads 67%; that for `CNC(=O)Nc1cn2nc(Nc3ccccc3)ccc2n1` [Compound I-7], 77%.
The result for `CNC(=O)Nc1cn2nc(-c3ccccc3)ccc2n1` [Compound I-9] reads 82%.
On to `CCOC(=O)c1ccc2nc(NC(=O)NC)cn2n1` [Compound I-13], for which the inhibition at 50 µM worked out at 87%.
As to `CNC(=O)Nc1cn2nc(C(=O)NCc3ccccc3)ccc2n1` [Compound I-15], the inhibition at 50 µM worked out at 74%.
The result for `CNC(=O)Nc1cn2nc(C(=O)c3cccc(OC)c3)ccc2n1` [Compound I-17] reads 76%; that for `CNC(=O)Nc1cn2nc(Sc3ccccc3)ccc2n1` [Compound I-18], 81%; that for `CNC(=O)Nc1cn2nc(Oc3ccccc3)ccc2n1` [Compound I-19], 65%.
The result for `CNC(=O)Nc1cn2nc(Cc3ccccc3)ccc2n1` [Compound I-20] reads 62%.
The result for `CNC(=O)Nc1cn2nc(COc3cccc(OC)c3)ccc2n1` [Compound I-22] reads 56%.
For the compound `COc1cccc(-c2ccc3nc(Nc4ccccc4)cn3n2)c1` [Compound I-27], the inhibition at 50 µM came to 69%.
The result for `CNC(=O)Nc1cn2nc(C(=O)N3CCC(C(=O)O)CC3)ccc2n1` [Compound I-32] reads 70%; that for `CNC(=O)Nc1cn2nc(C(=O)Nc3cccc(C(=O)O)c3)ccc2n1` [Compound I-33], 57%.
The result for `CNC(=O)Nc1cn2nc(-c3cccc(C(=O)OC)c3)ccc2n1` [Compound I-35] reads 77%; that for `CNC(=O)Nc1cn2nc(-c3cccc(OC)c3)ccc2n1` [Compound I-36], 90%.
The result for `CNC(=O)Nc1cn2nc(-c3ccsc3)ccc2n1` [Compound I-38] reads 91%; that for `CNC(=O)Nc1cn2nc(Nc3cccc(OC)c3)ccc2n1` [Compound I-39], 69%; that for `CNC(=O)Nc1cn2nc(C(=O)Nc3ccc(O)cc3)ccc2n1` [Compound I-41], 83%.
For the compound `CNC(=O)Nc1cn2nc(C(=O)Nc3ccccc3)ccc2n1` [Compound I-43], the inhibition at 50 µM came to 79%.
The result for `CNC(=O)Nc1cn2nc(C(=O)NCc3ccc(OC)cc3)ccc2n1` [Compound I-44] reads 57%.
The result for `CNC(=O)Nc1cn2nc(C(=O)Nc3ccc4[nH]ccc4c3)ccc2n1` [Compound I-45] reads 74%; that for `CNC(=O)Nc1cn2nc(C(=O)Nc3ccc(Cl)cc3)ccc2n1` [Compound I-46], 76%; that for `CCCNC(=O)c1ccc2nc(NC(=O)NC)cn2n1` [Compound I-48], 83%.
The result for `CNC(=O)Nc1cn2nc(C(=O)NCCOC)ccc2n1` [Compound I-49] reads 64%; that for `CNC(=O)Nc1cn2nc(C(=O)NC3CCCC3)ccc2n1` [Compound I-50], 89%.
For `CNC(=O)Nc1cn2nc(C(=O)Nc3ccc(C(=O)O)cc3)ccc2n1` [Compound I-52], the inhibition at 50 µM stood at 80%.
The result for `CNC(=O)Nc1cn2nc(Nc3cccc(OCc4ccccc4)c3)ccc2n1` [Compound I-53] reads 74%; that for `CNC(=O)Nc1cn2nc(Nc3ccc(OC)cc3)ccc2n1` [Compound I-54], 85%; that for `CNC(=O)Nc1cn2nc(-c3cccc(C(C)=O)c3)ccc2n1` [Compound I-55], 85%.
The result for `CNC(=O)Nc1cn2nc(-c3ccc(C(C)=O)cc3)ccc2n1` [Compound I-56] reads 77%.
The result for `CNC(=O)Nc1cn2nc(-c3cccc(N)c3)ccc2n1` [Compound I-57] reads 84%; that for `CNC(=O)Nc1cn2nc(-c3cc4ccccc4s3)ccc2n1` [Compound I-58], 70%; that for `CNC(=O)Nc1cn2nc(-c3cccc(Cl)c3)ccc2n1` [Compound I-59], 52%.
Turning to `CNC(=O)Nc1cn2nc(-c3ccc(Cl)cc3)ccc2n1` [Compound I-60], the inhibition at 50 µM came out at 64%.
The result for `CNC(=O)Nc1cn2nc(-c3ccc(OC)cc3)ccc2n1` [Compound I-63] reads 91%; that for `CNC(=O)Nc1cn2nc(-c3cccc(C)c3)ccc2n1` [Compound I-65], 79%.
`CNC(=O)Nc1cn2nc(-c3ccc(C)cc3)ccc2n1` [Compound I-66]: the inhibition at 50 µM was 77%.
The result for `CNC(=O)Nc1cn2nc(-c3ccc(Cl)c(Cl)c3)ccc2n1` [Compound I-67] reads 72%; that for `CNC(=O)Nc1cn2nc(-c3ccc(-c4ccccc4)cc3)ccc2n1` [Compound I-68], 90%; that for `CNC(=O)Nc1cn2nc(-c3cccc(CO)c3)ccc2n1` [Compound I-69], 89%.
The result for `CNC(=O)Nc1cn2nc(/C=C/c3ccccc3)ccc2n1` [Compound I-70] reads 78%; that for `CNC(=O)Nc1cn2nc(-c3ccc(C#N)cc3)ccc2n1` [Compound I-71], 69%; that for `CNC(=O)Nc1cn2nc(-c3ccc(S(C)(=O)=O)cc3)ccc2n1` [Compound I-72], 66%.
The result for `CNC(=O)Nc1cn2nc(-c3ccc(NS(C)(=O)=O)cc3)ccc2n1` [Compound I-73] reads 70%; that for `CNC(=O)Nc1cn2nc(-c3cccc(NS(C)(=O)=O)c3)ccc2n1` [Compound I-74], 89%.
Regarding `CNC(=O)Nc1cn2nc(-c3ccoc3)ccc2n1` [Compound I-76], the inhibition at 50 µM came out at 72%.
The result for `CNC(=O)Nc1cn2nc(-c3ccc(C(N)=O)cc3)ccc2n1` [Compound I-77] reads 64%; that for `CNC(=O)Nc1cn2nc(C3=CCCC3)ccc2n1` [Compound I-79], 81%.
The result for `CNC(=O)Nc1cn2nc(-c3ccc(NC(=O)OC)cc3)ccc2n1` [Compound I-80] reads 57%; that for `CNC(=O)Nc1cn2nc(-c3cccc(C(=O)N(C)C)c3)ccc2n1` [Compound I-82], 79%.
On to `CNC(=O)Nc1cn2nc(Nc3cccc(O)c3)ccc2n1` [Compound I-85], for which the inhibition at 50 µM is 111%.
As for `CNC(=O)Nc1cn2nc(C(=O)Nc3ccccc3OCCN)ccc2n1` [Compound I-98], the inhibition at 50 µM was found to be 72%.
The result for `CNC(=O)Nc1cn2nc(NC(C)=O)ccc2n1` [Compound I-101] reads 59%; that for `CNC(=O)Nc1cn2nc(NC(=O)c3cccc(Cl)c3)ccc2n1` [Compound I-103], 60%.
The result for `CNC(=O)Nc1cn2nc(NC(=O)c3ccccc3)ccc2n1` [Compound I-104] reads 55%; that for `CNC(=O)Nc1cn2nc(Nc3cccc(C(=O)OC)c3)ccc2n1` [Compound I-105], 73%; that for `COc1cccc(-c2ccc3nc(NC(=O)NCCc4ccccc4)cn3n2)c1` [Compound I-107], 74%.
Take `COc1cccc(-c2ccc3nc(NC(=O)Nc4cccs4)cn3n2)c1` [Compound I-108]: the inhibition at 50 µM was 89%.
`COc1cccc(-c2ccc3nc(NC(=O)NC4CCCCC4)cn3n2)c1` [Compound I-109]: the inhibition at 50 µM is 99%.
The result for `CCCNC(=O)Nc1cn2nc(-c3cccc(OC)c3)ccc2n1` [Compound I-110] reads 81%; that for `COc1cccc(-c2ccc3nc(NC(=O)Nc4ccsc4)cn3n2)c1` [Compound I-111], 55%; that for `CCOC(=O)CNC(=O)Nc1cn2nc(-c3cccc(OC)c3)ccc2n1` [Compound I-112], 84%.
Regarding `COc1cccc(-c2ccc3nc(NC(=O)NC(C)C)cn3n2)c1` [Compound I-113], the inhibition at 50 µM turned out to be 86%.
The result for `COc1cccc(-c2ccc3nc(NC(=O)NC4CCCC4)cn3n2)c1` [Compound I-115] reads 78%; that for `COc1cccc(-c2ccc3nc(NC(=O)NCCCl)cn3n2)c1` [Compound I-116], 76%; that for `CCCCNC(=O)Nc1cn2nc(-c3cccc(OC)c3)ccc2n1` [Compound I-117], 85%.
Regarding `CNC(=O)Nc1cn2nc(C(=O)N[C@@H](C)C(N)=O)ccc2n1` [Compound I-121], the inhibition at 50 µM stood at 71%.
The result for `CNC(=O)Nc1cn2nc(N3CCOC3=O)ccc2n1` [Compound I-122] reads 61%; that for `CNC(=O)Nc1cn2nc(-c3cccc(NC(C)=O)c3)ccc2n1` [Compound I-124], 105%.
The result for `CNC(=O)Nc1cn2nc(-c3cccc(C(C)C)c3)ccc2n1` [Compound I-127] reads 79%.

These data come from US20110105457A1, “HETEROCYCLIC COMPOUND HAVING INHIBITORY ACTIVITY ON PI3K” (SHIONOGI & CO., LTD., priority 2008, published 2011).
